In ChEMBL document CHEMBL4619725, “Ultrasounds-mediated 10-seconds synthesis of chalcones as potential farnesyltransferase inhibitors” (Bioorg Med Chem Lett, 2020):
Activity calls are given as the source filed them. The rule behind the calls is not given here.

Experiments:
MCF7 = assay: Cytostatic activity against human MCF7 cells assessed as growth inhibition at 10 uM incubated for 48 hrs by sulforhodamine B assay relative to control; assay type: functional; settings: MCF7, 48 h, read-out: GI
KM12 = assay: Cytostatic activity against human KM12 cells assessed as growth inhibition at 10 uM incubated for 48 hrs by sulforhodamine B assay relative to control; assay type: functional; settings: for inhibition of growth at 10 µM: KM12, 48 h, read-out: GI
LOX IMVI = assay: Cytostatic activity against human LOXIMVI cells assessed as growth inhibition at 10 uM incubated for 48 hrs by sulforhodamine B assay relative to control; assay type: functional; settings: for inhibition of growth at 10 µM: read-out: GI
CCRF-CEM = assay: Cytostatic activity against human CCRF-CEM cells assessed as growth inhibition at 10 uM incubated for 48 hrs by sulforhodamine B assay relative to control; assay type: functional; settings: for inhibition of growth at 10 µM: read-out: GI
K562 = assay: Cytostatic activity against human K562 cells assessed as growth inhibition at 10 uM incubated for 48 hrs by sulforhodamine B assay relative to control; assay type: functional; settings: K562, 48 h, read-out: GI
Homo sapiens = species: Homo sapiens; assay: Inhibition of C-terminal His6-tagged human recombinat FTase expressed in Escherichia coli BL21 RIL (DE3) cells using Dansyl-GCVLS peptide and farnesyl pyrophosphate as substrate at 100 uM measured for 15 mins by fluorimetric analysis relative to control
SW-620 [1] = assay: Cytostatic activity against human SW620 cells assessed as growth inhibition at 10 uM incubated for 48 hrs by sulforhodamine B assay relative to control; assay type: functional; settings: for inhibition of growth at 10 µM: SW-620, 48 h, read-out: GI
OVCAR-3 = assay: Cytostatic activity against human OVCAR3 cells assessed as growth inhibition at 10 uM incubated for 48 hrs by sulforhodamine B assay relative to control; assay type: functional; settings: for inhibition of growth at 10 µM: OVCAR-3, 48 h, read-out: GI
HCT-116 = assay: Cytostatic activity against human HCT116 cells assessed as growth inhibition at 10 uM incubated for 48 hrs by sulforhodamine B assay relative to control; assay type: functional; settings: for inhibition of growth at 10 µM: HCT-116, 48 h, read-out: GI
NCI-H522 = assay: Cytostatic activity against human NCI-H522 cells assessed as growth inhibition at 10 uM incubated for 48 hrs by sulforhodamine B assay relative to control; assay type: functional; settings: NCI-H522, 48 h, read-out: GI
[2] = Inhibition of C-terminal His6-tagged human recombinat FTase expressed in Escherichia coli BL21 RIL (DE3) cells using Dansyl-GCVLS peptide and farnesyl pyrophosphate as substrate measured for 15 mins by fluorimetric analysis
SR = assay: Cytostatic activity against human SR cells assessed as growth inhibition at 10 uM incubated for 48 hrs by sulforhodamine B assay relative to control; assay type: functional; settings: for inhibition of growth at 10 µM: read-out: GI
RPMI-8226 = assay: Cytostatic activity against human RPMI8226 cells assessed as growth inhibition at 10 uM incubated for 48 hrs by sulforhodamine B assay relative to control; assay type: functional; settings: for inhibition of growth at 10 µM: RPMI-8226, 48 h, read-out: GI
SW-620 [3] = assay: Cytotoxicity against human SW620 cells assessed as growth inhibition of preexisting tumor cells at 10 uM incubated for 48 hrs by sulforhodamine B assay relative to control; assay type: functional; settings: SW-620, 48 h, read-out: GI

With `O=C(/C=C/c1ccc(Cl)nc1)c1ccc(Cl)nc1` the inhibition of growth at 10 µM (MCF7) was 8.8%, the inhibition of growth at 10 µM (KM12) was 1% and the “growth inhibition (GI)” value (LOX IMVI) was “inactive”. For the same compound, the inhibition of growth at 10 µM (CCRF-CEM) was 3.1%, the inhibition of growth at 10 µM (K562) was 6.1% and the inhibition (Homo sapiens) was 26%. For the same compound, the “growth inhibition (GI)” value (SW-620 [1]) was “inactive”, the “growth inhibition (GI)” value (OVCAR-3) was “inactive” and the “growth inhibition (GI)” value (HCT-116) was “inactive”. It also gave an inhibition of growth at 10 µM (NCI-H522) of 5.3%.
`O=C(/C=C/c1ccc(Cl)c(Cl)c1)c1ccc(Cl)nc1` showed an inhibition of growth at 10 µM (MCF7) of 69.8%, an inhibition of growth at 10 µM (KM12) of 32.4% and an inhibition of growth at 10 µM (LOX IMVI) of 21.9%. It also gave an inhibition of growth at 10 µM (CCRF-CEM) of 15.2%, an inhibition of growth at 10 µM (K562) of 25.3% and an inhibition (Homo sapiens) of 22%. For the same compound, the inhibition of growth at 10 µM (SW-620 [1]) was 17.6%, the inhibition of growth at 10 µM (OVCAR-3) was 11.2% and the inhibition of growth at 10 µM (HCT-116) was 19.3%. The inhibition of growth at 10 µM (NCI-H522) was 17%.
For `O=C(/C=C/c1cccs1)c1cccs1`, the IC50 [2] was 12 µM and the inhibition (Homo sapiens) was 100%.
With `O=C(CC(CC(=O)c1ccc(Cl)nc1)c1cccs1)c1ccc(Cl)nc1` the inhibition (Homo sapiens) was 19%.
With `O=C(/C=C/c1ccc(Cl)c(Cl)c1)c1ccc(Cl)c(Cl)c1` the inhibition of growth at 10 µM (MCF7) was 14.2%, the “growth inhibition (GI)” value (KM12) was “inactive” and the “growth inhibition (GI)” value (LOX IMVI) was “inactive”. The inhibition of growth at 10 µM (SR) was 6.1%, the inhibition of growth at 10 µM (RPMI-8226) was 7.2% and the inhibition of growth at 10 µM (CCRF-CEM) was 3.7%. It also gave an IC50 [2] of 96.6 µM, an inhibition of growth at 10 µM (K562) of 9.7% and an inhibition (Homo sapiens) of 60%. The “growth inhibition (GI)” value (SW-620 [1]) was “inactive”, the “growth inhibition (GI)” value (OVCAR-3) was “inactive” and the inhibition of growth at 10 µM (HCT-116) was 6.1%. It also gave an inhibition of growth at 10 µM (NCI-H522) of 8.1%.
In the case of `O=C(CC(CC(=O)c1cccs1)c1ccc(Cl)cc1Cl)c1cccs1`, the inhibition of growth at 10 µM (MCF7) is reported as 10.2%, the inhibition of growth at 10 µM (KM12) is reported as 4.8% and the inhibition of growth at 10 µM (LOX IMVI) is reported as 10.9%. For the same compound, the inhibition of growth at 10 µM (SR) was 9.7%, the inhibition of growth at 10 µM (RPMI-8226) was 17.3% and the inhibition of growth at 10 µM (CCRF-CEM) was 7.9%. The inhibition of growth at 10 µM (K562) was 25%, the inhibition (Homo sapiens) was 0% and the inhibition of growth at 10 µM (SW-620 [1]) was 4.4%. The “growth inhibition (GI)” value (OVCAR-3) was “inactive”, the inhibition of growth at 10 µM (HCT-116) was 34.7% and the inhibition of growth at 10 µM (NCI-H522) was 17.3%.
Compound `Cn1cncc1[C@@](N)(c1ccc(Cl)cc1)c1ccc2c(c1)c(-c1cccc(Cl)c1)cc(=O)n2C` [TIPIFARNIB] has an IC50 [2] of 0.0079 µM.
`O=C(/C=C/c1ccc(Cl)nc1)c1ccc(Cl)cc1Cl` showed an inhibition of growth at 10 µM (MCF7) of 82.9%, an inhibition of growth at 10 µM (SW-620 [3]) of 33.2% and an inhibition of growth at 10 µM (KM12) of 23.5%. The inhibition of growth at 10 µM (LOX IMVI) was 93.5%, the inhibition of growth at 10 µM (CCRF-CEM) was 93% and the inhibition of growth at 10 µM (K562) was 92.3%. For the same compound, the inhibition (Homo sapiens) was 53%, the inhibition of growth at 10 µM (SW-620 [1]) was 100% and the inhibition of growth at 10 µM (OVCAR-3) was 21.5%. The inhibition of growth at 10 µM (HCT-116) was 63.3% and the inhibition of growth at 10 µM (NCI-H522) was 61.3%.
In the case of `O=C(CC(CC(=O)c1ccc(Cl)nc1)c1ccc(Cl)nc1)c1ccc(Cl)nc1`, the inhibition (Homo sapiens) is reported as 4%.
Compound `O=C(c1cccs1)[C@H]1[C@H](c2cccs2)[C@@H](C(=O)c2cccs2)[C@](O)(c2cccs2)C[C@@H]1c1cccs1` has an inhibition of growth at 10 µM (MCF7) of 12.2%, an inhibition of growth at 10 µM (KM12) of 3.4% and an inhibition of growth at 10 µM (LOX IMVI) of 7.8%. The inhibition of growth at 10 µM (SR) was 7.9%, the inhibition of growth at 10 µM (RPMI-8226) was 17.7% and the inhibition of growth at 10 µM (CCRF-CEM) was 5%. For the same compound, the inhibition of growth at 10 µM (K562) was 14.5%, the inhibition (Homo sapiens) was 2% and the “growth inhibition (GI)” value (SW-620 [1]) was “inactive”. For the same compound, the “growth inhibition (GI)” value (OVCAR-3) was “inactive”, the inhibition of growth at 10 µM (HCT-116) was 6.1% and the inhibition of growth at 10 µM (NCI-H522) was 15.3%.
For `O=C(/C=C/c1cccs1)c1ccc(Cl)c(Cl)c1`, the inhibition of growth at 10 µM (MCF7) was 72.5%, the inhibition of growth at 10 µM (KM12) was 2.8% and the “growth inhibition (GI)” value (LOX IMVI) was “inactive”. For the same compound, the “growth inhibition (GI)” value (SR) was “inactive”, the “growth inhibition (GI)” value (RPMI-8226) was “inactive” and the “growth inhibition (GI)” value (CCRF-CEM) was “inactive”. It also gave an IC50 [2] of 7.4 µM, an inhibition of growth at 10 µM (K562) of 1.7% and an inhibition (Homo sapiens) of 98%. The inhibition of growth at 10 µM (SW-620 [1]) was 5.5%, the “growth inhibition (GI)” value (OVCAR-3) was “inactive” and the inhibition of growth at 10 µM (HCT-116) was 2.2%. The inhibition of growth at 10 µM (NCI-H522) was 8.6%.
`O=C(/C=C/c1cccs1)c1ccc(Cl)cc1Cl` showed an IC50 [2] of 20.8 µM and an inhibition (Homo sapiens) of 70%.
`O=C(c1cccs1)[C@H]1[C@H](c2ccc(Cl)cc2Cl)[C@@H](C(=O)c2cccs2)[C@](O)(c2cccs2)C[C@@H]1c1ccc(Cl)cc1Cl` showed an inhibition of growth at 10 µM (MCF7) of 18.3%, an inhibition of growth at 10 µM (KM12) of 4.7% and an inhibition of growth at 10 µM (LOX IMVI) of 3.1%. The inhibition of growth at 10 µM (SR) was 10%, the inhibition of growth at 10 µM (RPMI-8226) was 26.8% and the inhibition of growth at 10 µM (CCRF-CEM) was 22.3%. The inhibition of growth at 10 µM (K562) was 16.5%, the inhibition (Homo sapiens) was 11% and the inhibition of growth at 10 µM (SW-620 [1]) was 12.7%. For the same compound, the inhibition of growth at 10 µM (OVCAR-3) was 11.5%, the inhibition of growth at 10 µM (HCT-116) was 21.2% and the inhibition of growth at 10 µM (NCI-H522) was 18.5%.
